Experiments:
[1] = UV absorbance of PMMA films loaded with additive; assay type: physicochemical; settings: additive 5% w/w of PMMA; value includes PMMA absorbance (higher by 0.07)
[2] = Sublimation of additive from PMMA film on hotplate heating (absorption spectra); assay type: physicochemical
Method: The same procedure was repeated for heating at 110° C., 130° C. and 160° C. The spectra taken each time were compared and the possible sublimation of the additive after the different thermal treatment procedures was calculated.
The following explanations apply to all tables. […] SUBL=temperature of sublimation.

[3] = UV absorbance of PMMA films loaded with additive; assay type: physicochemical; settings: additive 7.5% w/w of PMMA
Method: A quantity of a polyaromatic compound (i.e.compound (XI), Table 9), was added in part of this solution at a 7.5% w/w of the polymer concentration.
The solution was stirred at room temperature for a few hours and the polyaromatic compound was dissolved. Then, a small amount of the solution was used to spin coat a film on quartz substrate at 4000 rpm for 30 sec. The thickness of this film was measured by a profilometer and found 12250 Å. The absorption spectrum of the film was taken at vertical incidence.
The same procedure was repeated, using the initial PMMA solution this time. A new film was spun and its thickness was found 13000 Å. […]

[4] = Solubility of additive in the solvents used (PGMEA, MIBK)
Method: It is important that the selected additive is soluble in the solvents commonly used in the microlithography process. […] After film formation the amount of the additive sublimed during the baking cycles was tested. Evaluation of spectroscopic and etch resistance enhancement followed.
SOL=solubility at the solvents used (##=very bad, #=bad, *=good, **=very good). SUBL=temperature of sublimation.

Structure (SMILES)	UV 193 nm (absorbance) [1]	SUBL (temperature of sublimation) ([2]; additive 5% w/w in PMMA film)	SUBL (temperature of sublimation) ([2]; additive 7.5% w/w in PMMA film)	UV 193 nm (absorbance) [3]	UV 248 nm (absorbance) [3]	solubility (in words) [4]
OCc1c2ccccc2cc2ccccc12 [9-anthracene methanol]	0.43 /0.5 μm	110 °C				
CC(=O)C1CCC2C3CC=C4CC(OC(=O)c5c6ccccc6cc6ccccc56)CCC4(C)C3CCC12C (stereo not drawn) [Compound XIV, 5-pregnen-3β-yl-(9-anthryl-methylate)-20-one]			160 °C	0.20 /0.5 μm	0.52 /0.5 μm	
OC(Cc1c2ccccc2cc2ccccc12)Cc1c2ccccc2cc2ccccc12 [I]			160 °C	0.16 /0.5 μm	0.48 /0.5 μm	improved solubility
c1ccc2c(CNC3CCCCC3NCc3c4ccccc4cc4ccccc34)c3ccccc3cc2c1 (stereo not drawn) [VIII, trans-1,2-Di-(9-aminomethyl-anthryl)-cyclohexane]						improved solubility
O=C(OCc1c2ccccc2cc2ccccc12)c1c2ccccc2cc2ccccc12 [VII]			160 °C	0.35 /0.5 μm	1.16 /0.5 μm	not satisfactory
O=C(O)CCC(=O)OC(Cc1c2ccccc2cc2ccccc12)Cc1c2ccccc2cc2ccccc12 [II, 1,3-di-(9-anthryl2-propyl hydrogen succinate]			160 °C	0.33 /0.5 μm	1.25 /0.5 μm	improved solubility
O=C(OCc1c2ccccc2cc2ccccc12)C12CC3CC(CC(C3)C1)C2 [XI, 1-adamantyl 9-anthrylmethylate]			160 °C	0.05 /0.5 μm	0.36 /0.5 μm	very good solubility
c1ccc2c(CNCc3c4ccccc4cc4ccccc34)c3ccccc3cc2c1 [IV, N,N-Di-(9-anthrylmethyl)-amine]			160 °C	0.22 /0.5 μm	0.31 /0.5 μm	
O=C(O)c1c2ccccc2cc2ccccc12 [9-anthracene carboxylic acid]	0.46 /0.5 μm	110 °C				
O=C(CCC(=O)OC(Cc1c2ccccc2cc2ccccc12)Cc1c2ccccc2cc2ccccc12)OCc1c2ccccc2cc2ccccc12 [IX, 1,3-Di-(9-anthryl)-2-propyl 9-anthrylmethyl Succinate]			160 °C	1.41 /0.5 μm	1.74 /0.5 μm	decreased solubility
O=C(CCC(=O)OC(Cc1c2ccccc2cc2ccccc12)Cc1c2ccccc2cc2ccccc12)OCC(COC(=O)CCC(=O)OC(Cc1c2ccccc2cc2ccccc12)Cc1c2ccccc2cc2ccccc12)Cc1c2ccccc2cc2ccccc12 [X, Penta-anthryl ester]			160 °C	0.33 /0.5 μm	0.75 /0.5 μm	decreased solubility
O=C(OCC(COC(=O)C12CC3CC(CC(C3)C1)C2)Cc1c2ccccc2cc2ccccc12)C12CC3CC(CC(C3)C1)C2 (stereo not drawn) [Compound XIII, Mixed anthryl ester]			160 °C	0.17 /0.5 μm	0.45 /0.5 μm	
Nc1ccc2cc3ccccc3cc2c1 [2-aminoanthracene]	0.51 /0.5 μm	110 °C				
O=C(OCCOc1c2ccccc2cc2ccccc12)OCCOc1c2ccccc2cc2ccccc12 [VI, Di-2-(9-anthryloxy)-ethyl carbonate]			130 °C	0.24 /0.5 μm	1.04 /0.5 μm	
c1ccc2cc3ccccc3cc2c1 [anthracene]	0.38 /0.5 μm	110 °C				
